Laboratory results reported in PMC7714403 (JCI Insight, 2020).

Assays:
[1] = molecular target: BTK (Homo sapiens, UniProt Q06187); test: KiNativ, OCI cells live cell; format: cell-based; conditions: labeling site Activation Loop, peptide YVLDDEYTSSVGSKFPVR
[2] = molecular target: SGK3 (Homo sapiens, UniProt Q96BR1); test: KiNativ, OCI cells live cell; format: cell-based; conditions: 2 h, labeling site Lys1, peptide […]
[3] = molecular target: T1, ABL1 (Homo sapiens, UniProt P00519); test: KdELECT binding assay
T1 construct: purchased Eurofins DiscoverX

[4] = molecular target: Wee1 (Homo sapiens, UniProt P30291); test: KiNativ, OCI cells live cell; format: cell-based; conditions: 2 h, labeling site Lys2, peptide […]
[5] = tested on: OCI-AML3 cells; test: Viability assay; format: cell-based; conditions: Homo sapiens, OCI-AML-3, read-out: IC50 viability
Description: Drug treatments were carried out for 72 hours. Details are provided in the Supplemental Methods.

[6] = molecular target: MLK3 (Homo sapiens, UniProt Q16584); test: KiNativ, OCI cells live cell; format: cell-based; conditions: labeling site Lys2, peptide DLKSNNILLLQPIESDDMEHK
[7] = tested on: MST4, YSK1; test: KiNativ, OCI cells live cell; format: cell-based, human; conditions: labeling site Lys2, peptide DIKAANVLLSEQGDVK
[8] = tested on: OCI-AML3 cells; test: CD11b expression assay; format: cell-based, human; conditions: 20 nM and 50 nM, 72 hours
Description: (§1) Apoptosis and CD11b expression assays
(§2) At indicated time points, cells were collected and washed with PBS. CD11b expression was measured using anti-CD11b -APC antibody (BioLegend, San Diego, CA). Each sample was suspended in 100uL of FACS buffer (PBS + 4% FBS) with 1uL of antibody, incubated on ice for 15 minutes in the dark and washed once in PBS. DAPI (final concentration 1ug/mL [ThermoFisher Scientific]) was added to each sample as a viability dye. For apoptosis assay, cells were incubated with annexin V-APC (BioLegend) according to manufacturer’s instructions. CD11b expression and apoptosis were measured by BD LSR II flow cytometer. Two-color cytometry was performed, and data were […]
(§3) points, cells were collected and washed with 0.1% EDTA PBS (Ricca Chemical Company, Arlington, TX) followed by only PBS. Cells were then fixed on ice with ice-cold 70% ethanol for 30 minutes . Cells were either stored at -20°C for up to 1 month or processed immediately. Cells were spun down at 450 x g for 10 minutes and stained

[9] = tested on: MV4-11, MOLM13, and MOLM13-RES cells; test: CD11b expression assay; format: cell-based, human; conditions: 20 nM, 72 hours
Description: as §1, §2, §3

[10] = molecular target: T2, MAP2K6 (Homo sapiens, UniProt P52564); test: KiNativ, OCI cells live cell; format: cell-based; conditions: 2 h
T2 sequence (P52564 1-334): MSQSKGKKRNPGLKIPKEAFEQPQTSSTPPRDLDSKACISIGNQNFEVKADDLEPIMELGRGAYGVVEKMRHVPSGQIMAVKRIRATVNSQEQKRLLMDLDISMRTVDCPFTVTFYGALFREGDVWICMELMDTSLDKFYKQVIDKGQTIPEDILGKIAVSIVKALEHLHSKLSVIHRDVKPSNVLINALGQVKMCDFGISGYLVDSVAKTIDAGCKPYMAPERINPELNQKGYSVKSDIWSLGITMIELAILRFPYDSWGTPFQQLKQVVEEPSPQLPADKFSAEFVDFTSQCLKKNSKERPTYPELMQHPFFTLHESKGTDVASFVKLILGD

[11] = molecular target: T3, JAK3 domain2 (Homo sapiens, UniProt P52333); test: KiNativ, OCI cells live cell; format: cell-based; conditions: 2 h, labeling site Lys1, peptide […]
T3 construct: JAK3 domain2

[12] = molecular target: FLT3 ITD/F691L (Homo sapiens, UniProt P36888, F691L/ITD); test: KdELECT binding assay
[13] = molecular target: T4, MSK2 domain1 (Homo sapiens, UniProt O75676); test: KiNativ, OCI cells live cell; format: cell-based; conditions: 2 h
T4 construct: MSK2 domain1

[14] = tested on: PCTAIRE2, PCTAIRE3; test: KiNativ, MOLM13 live cells; format: cell-based, human; conditions: 100 nM, 2 hours; Lys1
Description: (§4) Samples were analyzed by KiNativ in situ kinase profiling by ActivX Biosciences.

[15] = tested on: MARK2, MARK3; test: KiNativ, MOLM13 live cells; format: cell-based, human; conditions: 100 nM, 2 hours; Lys2
Description: as §4

[16] = tested on: Wnk1, Wnk2; test: KiNativ, MOLM13 live cells; format: cell-based, human; conditions: 100 nM, 2 hours; ATP Loop
Description: as §4

[17] = tested on: JNK1, JNK2, JNK3; test: KiNativ, MOLM13 live cells; format: cell-based, human; conditions: 100 nM, 2 hours; Lys2
Description: as §4

[18] = tested on: Wnk1, Wnk2, Wnk4; test: KiNativ, MOLM13 live cells; format: cell-based, human; conditions: 100 nM, 2 hours; Activation Loop
Description: as §4

[19] = tested on: CaMK2a, CaMK2b, CaMK2d, CaMK2g; test: KiNativ, MOLM13 live cells; format: cell-based, human; conditions: 100 nM, 2 hours; Lys2
Description: as §4

[20] = tested on: AurA, AurB, AurC; test: KiNativ, MOLM13 live cells; format: cell-based, human; conditions: 100 nM, 2 hours; ATP Loop
Description: as §4

[21] = tested on: MST1, MST2; test: KiNativ, MOLM13 live cells; format: cell-based, human; conditions: 100 nM, 2 hours; Lys2
Description: as §4

[22] = tested on: SRPK1, SRPK2; test: KiNativ, MOLM13 live cells; format: cell-based, human; conditions: 100 nM, 2 hours; Lys1
Description: as §4

[23] = tested on: CDK11, CDK8; test: KiNativ, MOLM13 live cells; format: cell-based, human; conditions: 100 nM, 2 hours; Lys2
Description: as §4

[24] = tested on: MAP3K2, MAP3K3; test: KiNativ, MOLM13 live cells; format: cell-based, human; conditions: 100 nM, 2 hours; Lys2
Description: as §4

[25] = tested on: MAP3K15, MAP3K5, MAP3K6; test: KiNativ, MOLM13 live cells; format: cell-based, human; conditions: 100 nM, 2 hours; Lys1
Description: as §4

[26] = tested on: CK1g1, CK1g2, CK1g3; test: KiNativ, MOLM13 live cells; format: cell-based, human; conditions: 100 nM, 2 hours; ATP Loop
Description: as §4

[27] = tested on: PCTAIRE1, PCTAIRE3; test: KiNativ, MOLM13 live cells; format: cell-based, human; conditions: 100 nM, 2 hours; Lys2
Description: as §4

[28] = tested on: MAP2K1, MAP2K2; test: KiNativ, MOLM13 live cells; format: cell-based, human; conditions: 100 nM, 2 hours; Lys2
Description: as §4

CN1CCN(Cc2ccc(Nc3ncc(Cl)c(Nc4ccccc4S(=O)(=O)N(C)C)n3)cc2)CC1 [TP-0903]
Inhibition [1]: 57.3% | inhibition at 0.1 µM [2]: -12.3% | Kd [3]: < 5 nM | inhibition at 0.1 µM [4]: 67.8% | IC50 [5]: 37 nM | Inhibition [6]: 31.9% | Inhibition [7]: 25.0% | CD11b expression [8]: increase | Cell surface expression of CD11b [9]: increased | inhibition at 0.1 µM ([10]; labeling site Activation Loop, peptide MCDFGISGYLVDSVAKTIDAGCKPYMAPER): 8.8% | inhibition at 0.1 µM ([10]; labeling site Lys1, peptide HVPSGQIMAVKR): 28% | inhibition at 0.1 µM ([10]; labeling site Lys2, peptide DVKPSNVLINALGQVK): 18.6% | inhibition at 0.1 µM [11]: 31% | Kd [12]: 1.9 nM | inhibition at 0.1 µM ([13]; labeling site Lys1, peptide LYAMKVLR): 21.8% | inhibition at 0.1 µM ([13]; labeling site Lys2, peptide DLKLENVLLDSEGHIVLTDFGLSK): 12.3% | Inhibition vs DMSO [14]: -8.3% | Inhibition vs DMSO [15]: 37.1% | Inhibition vs DMSO [16]: -30.2% | Inhibition vs DMSO [17]: 18.9% | Inhibition vs DMSO [18]: -35.0% | Inhibition vs DMSO [19]: -2.0% | Inhibition vs DMSO [20]: 68.0% | Inhibition vs DMSO [21]: 41.2% | Inhibition vs DMSO [22]: 21.8% | Inhibition vs DMSO [23]: -1.1% | Inhibition vs DMSO [24]: -4.2% | Inhibition vs DMSO [25]: -11.5% | Inhibition vs DMSO [26]: -28.7% | Inhibition vs DMSO [27]: 81.4% | Inhibition vs DMSO [28]: -17.4%
